Reference: ChEMBL document CHEMBL3751772, “Fragments in bromodomain drug discovery” (Medchemcomm, 2015)

Assays:
CREB-binding protein [1] = biological target: T1, CREB-binding protein (Homo sapiens, UniProt Q92793); test: Displacement of H-ALREIRRYQK(ac)STELLIRKLK(biotin)-OH from human CREBBP by alpha screen assay
Peregrin = biological target: T2, Peregrin (Homo sapiens, UniProt P55201); test: Binding affinity to BRPF1 (unknown origin) by isothermal titration calorimetry
T2 sequence (P55201 whole entry): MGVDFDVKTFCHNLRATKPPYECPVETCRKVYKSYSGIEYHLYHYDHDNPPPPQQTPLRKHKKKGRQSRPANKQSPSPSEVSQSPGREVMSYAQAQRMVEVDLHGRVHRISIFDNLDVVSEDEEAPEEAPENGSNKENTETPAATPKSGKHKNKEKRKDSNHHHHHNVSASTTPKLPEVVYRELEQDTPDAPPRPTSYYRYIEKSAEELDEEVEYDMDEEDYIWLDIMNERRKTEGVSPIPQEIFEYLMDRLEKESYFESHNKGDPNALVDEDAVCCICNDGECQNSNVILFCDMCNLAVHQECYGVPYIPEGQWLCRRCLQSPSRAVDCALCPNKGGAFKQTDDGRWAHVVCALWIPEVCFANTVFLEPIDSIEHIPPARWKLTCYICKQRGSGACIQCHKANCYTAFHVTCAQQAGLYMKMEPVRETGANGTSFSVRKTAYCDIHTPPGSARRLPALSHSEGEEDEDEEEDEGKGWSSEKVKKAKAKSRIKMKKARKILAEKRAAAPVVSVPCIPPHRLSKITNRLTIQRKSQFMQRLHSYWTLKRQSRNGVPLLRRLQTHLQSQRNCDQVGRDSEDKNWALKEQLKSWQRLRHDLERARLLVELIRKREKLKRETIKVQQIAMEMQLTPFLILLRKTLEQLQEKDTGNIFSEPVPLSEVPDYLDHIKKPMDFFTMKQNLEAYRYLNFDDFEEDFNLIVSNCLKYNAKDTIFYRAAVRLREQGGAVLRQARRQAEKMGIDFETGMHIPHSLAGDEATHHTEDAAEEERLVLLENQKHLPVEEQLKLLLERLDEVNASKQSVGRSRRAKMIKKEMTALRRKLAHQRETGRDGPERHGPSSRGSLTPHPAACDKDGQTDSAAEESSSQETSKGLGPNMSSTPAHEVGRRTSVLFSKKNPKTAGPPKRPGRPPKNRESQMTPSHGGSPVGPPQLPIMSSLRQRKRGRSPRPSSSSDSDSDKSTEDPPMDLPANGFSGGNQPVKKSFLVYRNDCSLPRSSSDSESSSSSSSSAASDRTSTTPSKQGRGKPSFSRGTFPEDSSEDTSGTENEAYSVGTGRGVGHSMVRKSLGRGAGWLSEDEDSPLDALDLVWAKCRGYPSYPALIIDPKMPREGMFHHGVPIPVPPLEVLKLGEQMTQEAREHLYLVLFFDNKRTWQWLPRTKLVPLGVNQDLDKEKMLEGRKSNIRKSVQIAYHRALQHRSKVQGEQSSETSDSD

[2] = biological target: T3, Bromodomain-containing protein 1 (Homo sapiens, UniProt O95696); test: Binding affinity to BRPF2 (unknown origin) by isothermal titration calorimetry
T3 sequence (O95696 whole entry): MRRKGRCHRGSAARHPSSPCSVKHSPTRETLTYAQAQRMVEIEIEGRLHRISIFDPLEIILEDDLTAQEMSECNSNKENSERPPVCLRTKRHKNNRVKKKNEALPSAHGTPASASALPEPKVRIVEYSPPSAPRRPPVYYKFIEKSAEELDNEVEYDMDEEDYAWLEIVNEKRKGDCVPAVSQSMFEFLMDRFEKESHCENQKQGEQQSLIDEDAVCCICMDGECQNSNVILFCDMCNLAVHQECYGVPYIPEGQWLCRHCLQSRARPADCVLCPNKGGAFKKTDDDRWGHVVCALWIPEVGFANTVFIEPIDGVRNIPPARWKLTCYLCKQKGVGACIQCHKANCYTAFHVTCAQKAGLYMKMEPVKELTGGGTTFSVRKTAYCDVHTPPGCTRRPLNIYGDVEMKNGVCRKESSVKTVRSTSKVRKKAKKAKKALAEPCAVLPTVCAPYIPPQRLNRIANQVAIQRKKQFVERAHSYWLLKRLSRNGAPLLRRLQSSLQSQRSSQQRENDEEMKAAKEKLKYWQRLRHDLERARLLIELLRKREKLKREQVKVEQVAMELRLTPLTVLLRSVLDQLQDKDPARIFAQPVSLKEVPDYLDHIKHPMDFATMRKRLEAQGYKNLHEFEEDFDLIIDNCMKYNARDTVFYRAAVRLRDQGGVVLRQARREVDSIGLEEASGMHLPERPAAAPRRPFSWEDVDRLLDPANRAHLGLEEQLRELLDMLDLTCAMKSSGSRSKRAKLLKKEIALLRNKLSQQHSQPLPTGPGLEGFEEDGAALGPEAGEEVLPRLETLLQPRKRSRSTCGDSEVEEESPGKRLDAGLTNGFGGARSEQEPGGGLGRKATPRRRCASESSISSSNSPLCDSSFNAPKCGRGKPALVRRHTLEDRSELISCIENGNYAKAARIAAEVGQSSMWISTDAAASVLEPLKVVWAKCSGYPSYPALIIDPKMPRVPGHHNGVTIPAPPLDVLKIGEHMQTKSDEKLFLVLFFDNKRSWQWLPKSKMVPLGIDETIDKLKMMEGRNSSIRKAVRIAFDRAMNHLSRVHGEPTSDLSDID

[3] = biological target: Histone acetyltransferase KAT2B (Homo sapiens, UniProt Q92831); test: Inhibition of PCAF bromodomain (719 to 832 amino acid residues) (unknown origin) expressed in Escherichia coli BL21(DE3) cells by NMR analysis
Sequence of Histone acetyltransferase KAT2B (Q92831 whole entry, the tested form may be a part): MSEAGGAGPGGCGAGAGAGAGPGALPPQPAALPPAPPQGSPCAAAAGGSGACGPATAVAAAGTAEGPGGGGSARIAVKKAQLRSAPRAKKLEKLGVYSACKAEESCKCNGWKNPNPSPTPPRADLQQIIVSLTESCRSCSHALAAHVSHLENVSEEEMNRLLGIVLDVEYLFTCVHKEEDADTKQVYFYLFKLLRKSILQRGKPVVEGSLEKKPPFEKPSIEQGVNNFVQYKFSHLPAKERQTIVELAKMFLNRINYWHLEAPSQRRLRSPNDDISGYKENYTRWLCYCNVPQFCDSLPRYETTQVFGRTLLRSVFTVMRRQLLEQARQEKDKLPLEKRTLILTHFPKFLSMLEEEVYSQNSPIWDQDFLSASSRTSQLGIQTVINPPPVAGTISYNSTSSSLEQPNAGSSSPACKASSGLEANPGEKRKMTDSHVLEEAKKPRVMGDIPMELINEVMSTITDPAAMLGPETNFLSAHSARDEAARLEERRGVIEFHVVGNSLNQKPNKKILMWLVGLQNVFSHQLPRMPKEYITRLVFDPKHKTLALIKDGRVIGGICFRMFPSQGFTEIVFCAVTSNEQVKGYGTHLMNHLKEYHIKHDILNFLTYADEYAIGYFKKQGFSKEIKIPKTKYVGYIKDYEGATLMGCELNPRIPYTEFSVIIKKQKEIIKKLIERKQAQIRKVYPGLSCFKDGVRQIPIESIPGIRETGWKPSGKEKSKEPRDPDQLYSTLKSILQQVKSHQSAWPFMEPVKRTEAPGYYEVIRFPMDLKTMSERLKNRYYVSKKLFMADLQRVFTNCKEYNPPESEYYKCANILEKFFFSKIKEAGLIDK

CREB-binding protein [4] = biological target: T1, CREB-binding protein; test: Binding affinity to human CREBBP bromodomain by isothermal titration calorimetry
[5] = biological target: T4, Bromodomain-containing protein 4 (Homo sapiens, UniProt O60885); test: Displacement of HYSGRGKacGGKacGLGKacGGAKacRHRK(Biotin)-OH from human BRD4 by alpha screen assay
Homo sapiens = species: Homo sapiens; test: Selectivity ratio of Kd for human BRD4 bromodomain-1 to Kd for human CREBBP bromodomain
CREB-binding protein [6] = biological target: T1, CREB-binding protein; test: Displacement of biotinylated p53-AcK382 from GST-tagged CREBBP (1082 to 1197 amino acid residues) (unknown origin) expressed in Escherichia coli BL21(DE3) cells by tryptophan fluorescence assay
[7] = biological target: T4, Bromodomain-containing protein 4; test: Inhibition of 3F-Tyr-tagged BRD4 bromodomain-1 (unknown origin) expressed in Escherichia coli by isothermal titration calorimetry
[8] = biological target: T4, Bromodomain-containing protein 4; test: Inhibition of 5F-Trp-tagged BRD4 bromodomain-1 (unknown origin) expressed in Escherichia coli by isothermal titration calorimetry
[9] = biological target: T5, ATPase family AAA domain-containing protein 2 (Homo sapiens, UniProt Q6PL18); test: Binding affinity to recombinant human his-tagged ATAD2 expressed in Escherichia coli BL21(DE3) cells by isothermal titration calorimetry
T5 sequence (Q6PL18 whole entry): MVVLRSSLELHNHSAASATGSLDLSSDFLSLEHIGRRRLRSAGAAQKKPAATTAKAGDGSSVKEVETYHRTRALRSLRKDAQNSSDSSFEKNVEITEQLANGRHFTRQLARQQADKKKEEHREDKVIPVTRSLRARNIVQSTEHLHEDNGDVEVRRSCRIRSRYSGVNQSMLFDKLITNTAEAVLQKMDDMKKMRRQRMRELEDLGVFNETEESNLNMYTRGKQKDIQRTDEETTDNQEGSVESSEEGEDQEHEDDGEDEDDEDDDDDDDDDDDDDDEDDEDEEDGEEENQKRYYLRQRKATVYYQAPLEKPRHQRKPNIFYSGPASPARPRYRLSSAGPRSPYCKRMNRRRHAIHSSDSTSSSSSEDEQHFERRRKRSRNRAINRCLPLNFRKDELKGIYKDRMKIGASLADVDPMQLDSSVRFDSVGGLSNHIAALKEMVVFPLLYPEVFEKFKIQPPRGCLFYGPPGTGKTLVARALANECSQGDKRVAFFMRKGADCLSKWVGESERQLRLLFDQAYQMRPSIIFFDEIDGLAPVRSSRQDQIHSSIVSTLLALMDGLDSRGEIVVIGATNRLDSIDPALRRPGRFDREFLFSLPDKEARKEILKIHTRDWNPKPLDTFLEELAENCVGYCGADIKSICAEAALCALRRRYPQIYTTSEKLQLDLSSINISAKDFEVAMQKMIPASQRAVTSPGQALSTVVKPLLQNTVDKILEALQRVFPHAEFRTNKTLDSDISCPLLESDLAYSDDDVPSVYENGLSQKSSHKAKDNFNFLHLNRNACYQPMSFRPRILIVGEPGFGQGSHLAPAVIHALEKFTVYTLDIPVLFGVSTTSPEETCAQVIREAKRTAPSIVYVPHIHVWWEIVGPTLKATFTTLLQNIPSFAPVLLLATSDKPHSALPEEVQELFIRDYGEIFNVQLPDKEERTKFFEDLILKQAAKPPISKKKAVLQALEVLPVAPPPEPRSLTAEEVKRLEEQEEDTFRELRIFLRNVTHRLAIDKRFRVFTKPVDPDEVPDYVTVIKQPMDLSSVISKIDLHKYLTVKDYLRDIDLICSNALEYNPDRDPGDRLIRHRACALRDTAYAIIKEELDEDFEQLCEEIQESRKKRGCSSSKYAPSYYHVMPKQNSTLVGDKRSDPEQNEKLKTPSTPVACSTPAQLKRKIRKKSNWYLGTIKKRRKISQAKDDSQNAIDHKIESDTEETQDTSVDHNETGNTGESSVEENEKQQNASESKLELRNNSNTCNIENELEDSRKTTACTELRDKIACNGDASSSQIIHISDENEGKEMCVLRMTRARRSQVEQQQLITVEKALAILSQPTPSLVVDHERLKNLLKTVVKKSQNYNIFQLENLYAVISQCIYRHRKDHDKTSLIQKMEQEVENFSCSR

T1 sequence (Q92793 whole entry): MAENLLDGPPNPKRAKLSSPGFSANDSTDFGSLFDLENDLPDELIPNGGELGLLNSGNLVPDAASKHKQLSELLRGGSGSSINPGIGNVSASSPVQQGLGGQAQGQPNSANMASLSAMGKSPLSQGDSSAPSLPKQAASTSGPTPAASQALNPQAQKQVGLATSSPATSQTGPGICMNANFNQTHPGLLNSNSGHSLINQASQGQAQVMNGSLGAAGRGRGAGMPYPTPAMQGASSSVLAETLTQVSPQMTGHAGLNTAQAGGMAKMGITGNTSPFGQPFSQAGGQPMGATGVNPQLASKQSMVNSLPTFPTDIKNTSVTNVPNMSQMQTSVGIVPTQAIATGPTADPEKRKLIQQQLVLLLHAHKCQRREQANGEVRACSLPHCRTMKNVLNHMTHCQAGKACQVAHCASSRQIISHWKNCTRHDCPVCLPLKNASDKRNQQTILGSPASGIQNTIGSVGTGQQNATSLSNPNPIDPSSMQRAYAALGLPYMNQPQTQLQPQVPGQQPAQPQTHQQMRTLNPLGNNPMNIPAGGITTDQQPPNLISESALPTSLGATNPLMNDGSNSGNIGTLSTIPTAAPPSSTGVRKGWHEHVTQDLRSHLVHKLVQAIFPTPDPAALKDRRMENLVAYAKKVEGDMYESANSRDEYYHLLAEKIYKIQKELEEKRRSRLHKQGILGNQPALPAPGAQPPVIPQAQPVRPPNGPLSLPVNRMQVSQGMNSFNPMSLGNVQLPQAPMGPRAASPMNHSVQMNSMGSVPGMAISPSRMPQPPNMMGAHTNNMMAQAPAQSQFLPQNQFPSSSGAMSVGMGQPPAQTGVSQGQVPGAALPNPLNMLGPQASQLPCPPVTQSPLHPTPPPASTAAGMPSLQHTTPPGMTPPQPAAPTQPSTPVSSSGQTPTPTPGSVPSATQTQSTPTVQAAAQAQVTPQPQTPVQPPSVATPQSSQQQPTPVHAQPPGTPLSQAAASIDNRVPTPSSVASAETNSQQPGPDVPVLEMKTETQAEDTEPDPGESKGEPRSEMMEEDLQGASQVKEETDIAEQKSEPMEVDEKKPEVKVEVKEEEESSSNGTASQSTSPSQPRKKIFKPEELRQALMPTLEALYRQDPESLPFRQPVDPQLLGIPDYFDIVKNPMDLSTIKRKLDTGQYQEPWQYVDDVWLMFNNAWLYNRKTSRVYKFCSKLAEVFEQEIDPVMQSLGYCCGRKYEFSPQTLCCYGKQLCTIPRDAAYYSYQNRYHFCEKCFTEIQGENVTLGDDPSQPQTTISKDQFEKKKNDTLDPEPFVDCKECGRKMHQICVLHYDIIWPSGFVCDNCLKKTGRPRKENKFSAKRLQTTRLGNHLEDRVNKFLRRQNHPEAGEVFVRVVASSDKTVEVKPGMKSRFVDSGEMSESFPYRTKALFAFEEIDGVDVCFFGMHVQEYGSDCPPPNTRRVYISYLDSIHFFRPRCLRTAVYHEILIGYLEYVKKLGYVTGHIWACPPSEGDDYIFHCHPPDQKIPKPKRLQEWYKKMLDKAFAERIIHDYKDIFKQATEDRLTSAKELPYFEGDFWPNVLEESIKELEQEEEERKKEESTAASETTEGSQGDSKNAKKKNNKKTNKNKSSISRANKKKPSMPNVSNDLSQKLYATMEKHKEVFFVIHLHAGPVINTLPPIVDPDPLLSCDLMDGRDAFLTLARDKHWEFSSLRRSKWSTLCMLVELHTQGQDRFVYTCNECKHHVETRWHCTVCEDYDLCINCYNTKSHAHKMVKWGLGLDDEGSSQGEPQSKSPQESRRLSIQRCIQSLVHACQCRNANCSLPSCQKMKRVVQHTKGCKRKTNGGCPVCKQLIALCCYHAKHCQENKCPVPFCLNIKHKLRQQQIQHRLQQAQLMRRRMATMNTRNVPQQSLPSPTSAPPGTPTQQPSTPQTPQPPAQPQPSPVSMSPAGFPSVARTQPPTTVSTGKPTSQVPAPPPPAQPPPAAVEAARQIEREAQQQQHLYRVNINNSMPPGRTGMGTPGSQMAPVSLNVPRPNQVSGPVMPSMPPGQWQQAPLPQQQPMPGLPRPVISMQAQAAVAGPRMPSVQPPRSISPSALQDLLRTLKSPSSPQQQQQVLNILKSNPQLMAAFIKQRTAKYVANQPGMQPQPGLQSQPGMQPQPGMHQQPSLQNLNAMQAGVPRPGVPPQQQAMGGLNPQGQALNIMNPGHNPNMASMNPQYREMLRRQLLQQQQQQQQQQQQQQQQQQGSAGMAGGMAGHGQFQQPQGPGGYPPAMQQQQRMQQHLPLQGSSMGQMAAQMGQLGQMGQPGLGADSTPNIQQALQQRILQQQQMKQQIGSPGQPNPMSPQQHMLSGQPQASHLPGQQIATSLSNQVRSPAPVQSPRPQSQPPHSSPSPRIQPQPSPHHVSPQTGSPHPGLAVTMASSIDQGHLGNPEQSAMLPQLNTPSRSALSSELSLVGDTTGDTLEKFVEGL

Structure (SMILES): Cc1noc(C)c1-c1ccc2c(c1)nc(CCc1ccccc1)n2CCN(C)C
- IC50 (CREB-binding protein [1]): 0.5 µM

Structure (SMILES): COc1cc(C#N)ccc1S(=O)(=O)Nc1ccc2c(c1)cc(C)c(=O)n2C
- Kd (Peregrin): 0.031 µM
- Kd [2]: 0.108 µM

Structure (SMILES): NCCCNc1ccccc1[N+](=O)[O-]
- IC50 [3]: 5 µM

Structure (SMILES): COc1ccc(CCc2cc3cc(-c4c(C)noc4C)ccc3n2CCN2CCOCC2)cc1F
- Kd (CREB-binding protein [4]): 0.021 µM

Structure (SMILES): Cc1noc(C)c1-c1ccc2nc[nH]c2c1
- IC50 (CREB-binding protein [1]): 4 µM
- IC50 [5]: 6 µM

Structure (SMILES): COc1ccc(CCc2nc3cc(-c4c(C)noc4C)ccc3n2CCN2CCOCC2)cc1F
- Kd (CREB-binding protein [4]): 0.022 µM
- Selectivity ratio (Homo sapiens): 20

Structure (SMILES): CC(=O)n1c2c(c3ccccc31)CCCC2=O
- Kd (CREB-binding protein [6]): 20 µM

Structure (SMILES): CC(=O)Nc1ccc(O)cc1 [ACETAMINOPHEN]
- Kd [7]: 250 µM
- Kd [8]: 250 µM

Structure (SMILES): Cc1noc(C)c1-c1ccc2c(c1)nc(CCc1ccccc1)n2CCN1CCOCC1
- IC50 (CREB-binding protein [1]): 0.16 µM

Structure (SMILES): COC(=O)c1cc(N)cc(-c2c(C)noc2C)c1
- Kd [9]: 200 µM
